In patent publication US10028956B2, “Methods of treating various cancers using an AXL/cMET inhibitor in combination with other agents” (Ignyta, Inc., priority 2013, dated 2018):

Experiments:
[1] = tested on: GTL-16 gastric carcinoma xenografts; experiment: Anti-tumor efficacy in GTL-16 gastric carcinoma xenografts; format: in vivo, mice; settings: 10 and 30 mg/kg oral qd
From the text: The human gastric cancer cell line, GTL-16 was purchased from ATCC (American Tissue Culture Collection, Manassas, Va.) and cultured in DMEM medium with 10% fetal bovine serum (FBS, Cat# SH3007003, Hyclone Laboratory Inc, Logan, Utah). Female Nu/Nu mice (6-8 weeks, Charles River Laboratory, Wilmington, Mass.) were maintained 5/cage in microisolator units on a standard laboratory diet (Teklad Labchow, Harlan Teklad, Madison, Wis.). Animals were housed under humidity- and temperature-controlled conditions and the light/dark cycle was set at 12-hour intervals. Mice were quarantined at least 1 week prior to experimental manipulation. […] The mice were then monitored daily. […] The length (L) and width (W) of each tumor was measured with a vernier caliper and the mouse body weight was determined every 2-3 days. The tumor volumes were then calculated with the formula of 0.5236*L*W*(L+W)/2. […] Plasma and tumor samples were obtained at 2 hours post final dose at each dose level, and the compound levels in plasma and tumor lysates were measured by LC-MS/MS. The TGI values were calculated at the end of study by comparing the tumor volumes (TV) of each CEP-40783-treatment group with those of vehicle-treated group with the following formula: 1-(the last day TV of compound-treated group/the last day TV of vehicle-treated group).

AXL [2] = target: T1, AXL (Homo sapiens, UniProt P30530); experiment: AXL enzyme inhibition (recombinant enzyme); format: biochemical
T1 sequence (P30530 26-894): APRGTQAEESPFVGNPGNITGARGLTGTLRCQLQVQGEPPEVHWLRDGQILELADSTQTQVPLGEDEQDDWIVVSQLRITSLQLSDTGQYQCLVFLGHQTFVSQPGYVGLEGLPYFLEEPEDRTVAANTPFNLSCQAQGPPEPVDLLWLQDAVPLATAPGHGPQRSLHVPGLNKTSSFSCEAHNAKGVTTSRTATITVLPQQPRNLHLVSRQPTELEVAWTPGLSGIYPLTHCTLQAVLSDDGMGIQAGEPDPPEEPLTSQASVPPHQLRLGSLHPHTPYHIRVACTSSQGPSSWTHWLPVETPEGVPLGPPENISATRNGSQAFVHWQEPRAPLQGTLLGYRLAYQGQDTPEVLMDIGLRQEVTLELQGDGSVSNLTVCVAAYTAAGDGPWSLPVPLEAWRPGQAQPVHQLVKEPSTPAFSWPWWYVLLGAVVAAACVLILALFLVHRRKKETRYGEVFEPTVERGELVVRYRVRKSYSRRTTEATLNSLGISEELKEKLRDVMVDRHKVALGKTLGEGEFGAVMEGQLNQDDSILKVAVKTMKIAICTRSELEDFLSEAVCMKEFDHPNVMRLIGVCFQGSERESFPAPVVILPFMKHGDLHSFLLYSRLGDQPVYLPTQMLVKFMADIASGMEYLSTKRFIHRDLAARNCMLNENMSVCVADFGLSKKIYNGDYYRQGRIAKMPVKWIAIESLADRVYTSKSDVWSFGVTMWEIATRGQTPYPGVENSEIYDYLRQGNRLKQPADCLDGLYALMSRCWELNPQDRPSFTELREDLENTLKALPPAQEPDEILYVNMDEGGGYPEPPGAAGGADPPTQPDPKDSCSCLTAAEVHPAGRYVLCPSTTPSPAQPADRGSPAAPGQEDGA

AXL [3] = target: T1, AXL; experiment: Cellular AXL inhibition in AXL-transfected 293GT cells; format: cell-based

Structure (SMILES): COc1cc2nccc(Oc3ccc(NC(=O)c4cn(C(C)C)c(=O)n(-c5ccc(F)cc5)c4=O)cc3F)c2cc1OC [CEP-40783, 3-(4-Fluorophenyl)-1-isopropyl-2,4-dioxo-1,2,3,4-tetrahydropyrimidine-5-carboxylic acid [4-(6,7-dimethoxyquinolin-4-yloxy)-3-fluorophenyl]-amide]
- anti-tumor efficacy (tumor volume) [1]: tumor stasis and regressions
- IC50 (AXL [2]): 7 nM
- IC50 (AXL [3]): 0.26 nM
